Reference: ChEMBL document CHEMBL1201862, “PubChem BioAssay data set” (2004)
Activity calls are given as the source filed them.

Legend:
[1] = molecular target: Cytochrome P450 2D6 (Homo sapiens, UniProt P10635); test: qHTS Assay for Inhibitors and Substrates of Cytochrome P450 2D6. [Related pubchem assays: 410 ]; format: ADME; details: read-out: Potency
[2] = tested on: Streptococcus; test: Luminescence Microorganism-Based Dose Response Follow up to Identify Compounds Cytotoxic to Streptococcus. [Related pubchem assays: 1677 (Project Summary), 1915, 1914, 1902 (Retest at Dose), 1900 (Counter Screen), 1662 (Primary HTS)]; format: functional, organism-based
[3] = molecular target: Dual specificity tyrosine-phosphorylation-regulated kinase 1A (Rattus norvegicus, UniProt Q63470); format: biochemical, Homo sapiens
[4] = molecular target: T1, Mitochondrial peptide methionine sulfoxide reductase (Bos taurus, UniProt P54149); format: functional;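 note: absorbance read-out, biochemical high-throughput dose-response screen for MsrA inhibitors, confirmatory; recombinant bovine MsrA coupled to E. coli TrxB with NADPH and selenocystamine; potency is for inhibitors of MsrA activity on DMSO substrate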
T1 sequence (P54149 whole entry): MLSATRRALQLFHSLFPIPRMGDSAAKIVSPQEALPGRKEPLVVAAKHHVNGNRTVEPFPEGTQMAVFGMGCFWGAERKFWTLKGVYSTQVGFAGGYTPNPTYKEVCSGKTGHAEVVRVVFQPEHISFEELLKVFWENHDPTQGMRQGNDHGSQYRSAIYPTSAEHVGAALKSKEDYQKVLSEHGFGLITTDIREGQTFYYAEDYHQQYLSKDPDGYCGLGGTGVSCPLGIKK

[5] = molecular target: Cytochrome P450 3A4 (Homo sapiens, UniProt P08684); details: read-out: Potency;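 note: confirmatory qHTS run detecting inhibitors and substrates of CYP3A4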
Sequence of Cytochrome P450 3A4 (P08684 whole entry): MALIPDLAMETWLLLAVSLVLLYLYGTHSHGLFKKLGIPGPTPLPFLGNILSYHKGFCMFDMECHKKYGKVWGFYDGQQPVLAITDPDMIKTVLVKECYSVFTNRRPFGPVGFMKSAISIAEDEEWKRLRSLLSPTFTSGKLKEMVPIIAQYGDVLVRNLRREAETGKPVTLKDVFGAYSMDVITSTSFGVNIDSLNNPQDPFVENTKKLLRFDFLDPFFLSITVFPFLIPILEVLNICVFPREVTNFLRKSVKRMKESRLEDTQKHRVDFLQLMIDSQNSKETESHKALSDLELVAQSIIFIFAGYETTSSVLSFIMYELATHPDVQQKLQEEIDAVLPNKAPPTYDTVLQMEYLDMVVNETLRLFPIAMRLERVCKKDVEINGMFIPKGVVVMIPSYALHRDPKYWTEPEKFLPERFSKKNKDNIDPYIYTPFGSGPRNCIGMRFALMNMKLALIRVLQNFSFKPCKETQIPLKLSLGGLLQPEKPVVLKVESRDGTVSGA

[6] = tested on: HT-1080; test: cytotoxicity in HT1080 fibrosarcoma cells, cell-based, fluorescence readout (AID 620); format: functional; details: Homo sapiens
[7] = molecular target: Luciferin 4-monooxygenase (Photinus pyralis, UniProt P08659); test: Counter Screen for Luciferase-based Assay Positives. [Related pubchem assays: 620, 618, 411 ]
Sequence of Luciferin 4-monooxygenase (P08659 whole entry): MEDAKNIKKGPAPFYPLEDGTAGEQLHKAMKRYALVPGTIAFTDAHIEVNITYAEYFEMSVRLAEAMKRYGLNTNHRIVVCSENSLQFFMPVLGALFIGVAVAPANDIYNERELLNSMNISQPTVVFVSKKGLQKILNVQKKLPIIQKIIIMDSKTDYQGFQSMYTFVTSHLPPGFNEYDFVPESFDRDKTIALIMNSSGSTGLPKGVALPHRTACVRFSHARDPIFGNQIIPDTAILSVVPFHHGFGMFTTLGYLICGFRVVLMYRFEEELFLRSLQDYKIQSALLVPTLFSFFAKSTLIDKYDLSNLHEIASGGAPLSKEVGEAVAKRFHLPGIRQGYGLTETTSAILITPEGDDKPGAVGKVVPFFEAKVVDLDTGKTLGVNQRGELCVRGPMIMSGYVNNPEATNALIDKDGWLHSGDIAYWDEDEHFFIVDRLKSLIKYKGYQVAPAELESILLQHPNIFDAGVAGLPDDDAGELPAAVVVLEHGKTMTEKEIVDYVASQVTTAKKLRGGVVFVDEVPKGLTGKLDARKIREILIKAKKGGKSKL

[8] = molecular target: Polyadenylate-binding protein 1 (Homo sapiens, UniProt P11940); test: PABP poly(A) RNA binding inhibitors, primary screen, biochemical, fluorescence polarization, uHTS (AID 2014)
Sequence of Polyadenylate-binding protein 1 (P11940 whole entry): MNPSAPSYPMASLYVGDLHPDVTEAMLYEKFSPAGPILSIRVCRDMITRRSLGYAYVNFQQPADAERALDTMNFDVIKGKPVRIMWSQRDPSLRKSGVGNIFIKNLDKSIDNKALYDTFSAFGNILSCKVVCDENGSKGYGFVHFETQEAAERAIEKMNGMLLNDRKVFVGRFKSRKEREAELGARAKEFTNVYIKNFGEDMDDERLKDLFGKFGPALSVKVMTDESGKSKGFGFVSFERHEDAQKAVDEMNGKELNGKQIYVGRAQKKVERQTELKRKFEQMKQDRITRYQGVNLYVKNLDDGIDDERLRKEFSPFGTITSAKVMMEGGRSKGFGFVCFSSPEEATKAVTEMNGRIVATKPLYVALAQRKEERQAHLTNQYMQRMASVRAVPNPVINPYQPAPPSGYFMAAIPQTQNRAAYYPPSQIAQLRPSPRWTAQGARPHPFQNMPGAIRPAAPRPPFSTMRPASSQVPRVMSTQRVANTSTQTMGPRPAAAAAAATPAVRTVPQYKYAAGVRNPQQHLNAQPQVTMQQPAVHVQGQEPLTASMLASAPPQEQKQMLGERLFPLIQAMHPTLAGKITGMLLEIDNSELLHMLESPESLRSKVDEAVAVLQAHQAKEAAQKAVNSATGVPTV

[9] = molecular target: Eukaryotic translation initiation factor 4H (Homo sapiens, UniProt Q15056); test: human eIF4H binding inhibitors, primary screen, translation initiation inhibitor project, biochemical, uHTS, fluorescence polarization (AID 2012)

Sequence of Cytochrome P450 2D6 (P10635 whole entry): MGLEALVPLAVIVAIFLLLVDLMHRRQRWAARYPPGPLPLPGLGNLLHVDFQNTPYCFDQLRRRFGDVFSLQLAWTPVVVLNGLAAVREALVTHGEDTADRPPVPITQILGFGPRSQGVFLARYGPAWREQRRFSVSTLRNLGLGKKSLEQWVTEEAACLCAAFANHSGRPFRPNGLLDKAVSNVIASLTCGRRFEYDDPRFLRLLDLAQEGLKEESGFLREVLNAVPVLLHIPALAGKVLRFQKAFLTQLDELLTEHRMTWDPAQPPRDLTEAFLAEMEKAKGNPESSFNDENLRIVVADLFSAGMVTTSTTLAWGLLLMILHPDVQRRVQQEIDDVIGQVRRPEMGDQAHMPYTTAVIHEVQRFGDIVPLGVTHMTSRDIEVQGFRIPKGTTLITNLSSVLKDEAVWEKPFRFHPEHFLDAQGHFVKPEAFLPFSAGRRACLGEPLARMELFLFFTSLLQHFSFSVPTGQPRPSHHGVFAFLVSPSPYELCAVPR

Question: `CC[C@@H]1[C@H]2CCCCN3[C@@H]2[C@@H](C[C@H]3[C@@H]2C[C@H](C)C(=O)O2)[C@@H]2[C@H]1OC(=O)[C@H]2C` was tested. Which AC50 [1] did it give?
Answer: The AC50 was 10 µM (inconclusive).

Question: How did the EC50 [2] turn out when `O=C(c1ccc(OC(F)(F)F)cc1)n1c2ccccc2c2ccccc21` was run?
Answer: The EC50 was > 500 µM (not active).

Question: What does the source list for `COc1cc2c(cc1O)CC1c3c(cc(O)c(OC)c3-2)CCN1C` (centres undefined)?
Answer: AC50 [3]: 3.83 µM (active); IC50 [4]: 53.9 µM (inactive); AC50 [5]: 25.1 µM (inconclusive)

Question: For `COc1ccc(-c2cc(C(=O)O)c(C)o2)cc1OC`, which EC50 [6] is on record?
Answer: Its EC50 is > 50 µM (not active).

Question: What about the EC50 [7] of the same compound?
Answer: Its EC50 is 4.68 µM (active).

Question: With `CCCCn1cc[n+](-c2nc3c([N+](=O)[O-])cccc3n2C)c1` as the compound, how does the IC50 [8] read?
Answer: The IC50 was 4.55 µM (active).

Question: What about the IC50 [9] of the same compound?
Answer: Its IC50 is > 100 µM (inactive).
